{
  "source": "patent US20230233583A1",
  "about": "“USE OF PHYTOCANNABINOIDS FOR TREATING MULTIPLE MYELOMA” (priority 2020, published 2023)",
  "origin": "cited, not measured here",
  "tested_on": "MM cells",
  "details": "reported in literature (ref. 3); by itself or in synergy with bortezomib; cited from earlier work",
  "data": [
    {"molecule": "C=C(C)[C@@H]1CCC(C)=C[C@H]1c1c(O)cc(CCCCC)cc1O", "note": "[CBD, cannabidiol]", "values": [
      {"measurement": "growth of MM cells, in words", "value": "strongly inhibited growth"}
    ]}
  ]
}
